Test results published in patent US6979470B2 (priority 2001, dated 2005).

Tests used:
COX-2 [1] = target: T1, COX-2 (Mus musculus, UniProt Q05769); assay: cell-based; type: cell-based
T1 construct: LPS, which was used to induce the expression of COX-2 in the RAW 264.7 cells; host or cells: RAW 264.7
T1 sequence (Q05769 18-604): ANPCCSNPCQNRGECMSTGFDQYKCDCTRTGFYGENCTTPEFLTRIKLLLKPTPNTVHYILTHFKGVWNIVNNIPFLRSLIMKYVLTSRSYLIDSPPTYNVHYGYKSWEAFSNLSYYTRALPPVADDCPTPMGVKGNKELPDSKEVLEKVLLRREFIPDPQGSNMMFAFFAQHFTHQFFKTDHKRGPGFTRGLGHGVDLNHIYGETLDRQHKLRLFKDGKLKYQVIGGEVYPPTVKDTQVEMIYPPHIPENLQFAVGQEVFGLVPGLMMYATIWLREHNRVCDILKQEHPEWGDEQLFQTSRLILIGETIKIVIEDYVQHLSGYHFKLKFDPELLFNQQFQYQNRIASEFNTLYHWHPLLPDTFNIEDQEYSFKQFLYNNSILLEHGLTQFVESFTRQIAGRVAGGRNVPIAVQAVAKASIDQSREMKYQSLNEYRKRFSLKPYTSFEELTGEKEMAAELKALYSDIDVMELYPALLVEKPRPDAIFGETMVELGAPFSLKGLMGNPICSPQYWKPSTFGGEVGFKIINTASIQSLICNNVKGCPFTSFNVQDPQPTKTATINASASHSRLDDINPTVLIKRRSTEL
Experimental: On day one of the experiment, the log phase 264.7 cells were plated at 8×10^4 cells per well in 0.2 mL growth medium per well in a 96-well tissue culture plate. After 6 to 8 hours post plating, 100 μL of growth medium from each well was removed and replaced with 100 μL fresh medium. […] It was mixed until dissolved and stored at 4° C. Immediately before use, it was thawed at room temperature or in a 37° C. water bath. A new solution was prepared every 60 days.
On day two of the experiment, the test materials were prepared as 1000× stock in DMSO. For example, if the final concentration of the test material was to be 10 μg/mL, a 10 mg/mL stock was prepared by dissolving 10 mg of the test material in 1 mL of DMSO. Fresh test materials were prepared on day 2 of the experiment. In 1.7 mL microfuge tubes, 1 mL DMEM without FBS was added to obtain test concentrations of 0.05, 0.10, 0.5, and 1.0 μg/mL. 2 μL of the 1000×DMSO stock of the test material was added to the 1 mL of medium without FBS. The tube contained the final concentration of the test material was concentrated 2-fold. The tube was placed in incubator for 10 minutes to equilibrate.
One-hundred mL of medium was removed from each well of the cell plates prepared on day one. One-hundred mL of equilibrated 2× final concentration the test compounds were added to cells and incubated for 90 minutes. […]

COX-2 [2] = conditions: reported, specificity for COX-2 over COX-1; cited from earlier work

## C=C1CC[C@@H]2[C@](C)(CO)[C@H](O)CC[C@@]2(C)[C@@H]1C/C=C1/C(=O)OC[C@H]1O [Andrographolide]
COX-2 [1]; COX-1 IC50 (enzyme) / COX-2 IC50 (RAW 264.7)
  SPECIFICIY COX-1/COX-2: 5.2
COX-2 [1]; second compound alone, PGE2 production by COX-2, RAW 264.7 cells, 24 h LPS
  IC50: 762 µM

## CC(=O)Oc1ccccc1C(=O)O [aspirin]
COX-2 [2]
  COX-2 specificity: 0.6
